{"source": "patent US8080404B1", "about": "“Enzymatic decontamination” (priority 2005, dated 2011)", "test_system": "Bacillus anthracis NNR1Δ1 spores", "type": "cell-based"}
{"molecule": "octyl phenol ethoxylate [triton X-100]", "values": [{"measurement": "spore kill efficiency with surfactant", "result": "most efficient formulation for spore inactivation"}]}
{"molecule": "CC(=O)Oc1ccccc1C(=O)O", "note": "[acetylsalicylic acid]", "values": [{"measurement": "efficiency of spore killing with acetyl donor", "result": "increasing concentrations of acetylsalicylic acid resulted in increased efficiency of spore killing"}]}
{"molecule": "CC(=O)O", "note": "[acetic acid]", "values": [{"measurement": "kill rate with acetyl donor", "result": "enhanced the kill rate to about the same degree as did 0.125% acetylsalicylic acid"}]}
{"molecule": "CCCCCCCCCCCC[N+](C)(C)CCCS(=O)(=O)[O-]", "note": "[3-(dodecyldimethylamino) propane sulfonate]", "values": [{"measurement": "promotion of spore killing by zwitterionic surfactant", "result": "most efficient at promoting spore killing"}]}
